# Patent US4837224A, “(R)-alpha-ethyl-2-oxo-1-pyrrolidineacetamide compositions” (UCB Societe Anonyme, priority 1984, dated 1989)
# Legend:
# [1] = system: amnesia-inducing effect of an electric shock; assay: Mnemic activity: antagonism of the amnesia-inducing effect of an electric shock; type: in vivo, rat (female Wistar); conditions: for minimal effective dose: sc, rat, subcutaneous, 5 minutes after the end of the learning session, retention measured 24 hours after the learning session, read-out: Active dose (minimum active dose reestablishing a normal threshold of between 8 to 11 graduations); for mnemic activity relative to the racemate: times more active than the racemate (compound A)
# Text: The principle of the test is as follows:
# The reaction of withdrawal of a rat's paw when subjected to an increasing and measured pressure is observed. The pressure at which the withdrawal reaction takes place is referred to as the "reaction threshold". This threshold is expressed by the number of graduations read diectly from the scale of the apparatus used (analgesia-meter UGO BASILE Milan) and thus corresponds to the minimum pressure which, applied to the paw of the animals, causes the paw to be withdrawn (learning session). Three measurements are carried out at intervals of 30 minutes.
# When tested 24 hours after the end of the learning session, control animal show a natural retention of the previous test, which corresponds to a threshold of the order of 8 to 11 graduations.
# The amnesia-inducing effect is produced by applying a trans-temporal supramaximal electric shock (100 mA, 120 Volts, 0.2 sec.) to the rats 15 minute after the end of the learning session. This amnesia-inducing effect due to the electric shock induces, when measuring the retention 24 hours later, an increase of the avoidance threshold which now corresponds to that of naive animals (which have not undergone a learning session), that is to say a threshold of between 14 and 19 graduations.
# For each compound to be tested the minimum active dose (in mg/kg) reestablishing a normal threshold of between 8 to 11 graduations 24 hours after the learning session in animals subjected to electric shock is determined.
# The compounds to be tested are administered subcutaneously, as a 10% solution or suspension, to groups of 10 rats (female Wistar rats weighing 150 g) 5 minutes after the end of the learning session. At the same time, a control group of 10 rats is given only a 0.9% aqueous sodium chloride solution.
# [2] = Toxicity: LD 50 after intravenous administration in the male mouse; type: in vivo; conditions: in vivo; male mouse, intravenous
# Text: (§1) The following table gives, for compounds A and B, the LD 50 in mg/kg determined on the male mouse and the male rat after intravenous administration
# [3] = system: male mouse; assay: as above; type: in vivo
# Text: as §1
# [4] = Toxicity: LD 50 after intravenous administration in the male rat; conditions: in vivo
# Text: as §1
smiles,measurement,setting,value
"CCC(C(N)=O)N1CCCC1=O (racemic) [compound A, alpha-ethyl-2-oxo-1-pyrrolidineacetamide]",minimal effective dose,[1],1.7 mg/kg
"CC[C@H](C(N)=O)N1CCCC1=O [compound B, (R)-alpha-ethyl-2-oxo-1-pyrrolidineacetamide]",minimal effective dose,[1],0.17 mg/kg
same,mnemic activity relative to the racemate,[1],10 times
same,mnemic activity relative to the racemate,[1]; listed as dextrorotatory enantiomer of alpha-ethyl-2-oxo-1-pyrrolidineacetamide,about 10 times
same,LD50,[2],5600 mg/kg
same,toxicity relative to the racemate,"[3]; times lower toxicity than the racemic form, based on LD 50 in mouse and rat",3 times
same,toxicity relative to the racemate (in words),"[3]; versus racemate (product A), LD 50 mouse and rat, intravenous",three times less toxic
same,LD50,[4],5000 mg/kg
